Assay: molar heat capacity at constant pressure
Conditions: Gas, Flow calorimetry

C=C(F)C(F)(F)F [2,3,3,3-tetrafluoro-1-propene]
Conditions	molar heat capacity at constant pressure [J/K/mol]
373.15 K, 3498 kPa	410.55
373.15 K, 4114 kPa	394.58
373.15 K, 4160 kPa	387.74
373.15 K, 4441 kPa	288.53
373.15 K, 4642 kPa	273.7
373.15 K, 4921 kPa	245.19
373.15 K, 5047 kPa	238.35
373.15 K, 5955 kPa	210.98
373.15 K, 6023 kPa	210.98
373.15 K, 8020 kPa	187.03
373.15 K, 8021 kPa	188.17
373.15 K, 8024 kPa	188.17
393.15 K, 4039 kPa	218.96
393.15 K, 4040 kPa	217.82
393.15 K, 4943 kPa	345.55
393.15 K, 4944 kPa	339.84
393.15 K, 5417 kPa	322.74
393.15 K, 5958 kPa	278.26
393.15 K, 6022 kPa	275.98
393.15 K, 7949 kPa	205.27
393.15 K, 8043 kPa	205.27
393.15 K, 10032 kPa	188.17
413.15 K, 4015 kPa	173.34
413.15 K, 4989 kPa	207.56
413.15 K, 5045 kPa	208.7
413.15 K, 6037 kPa	244.05
413.15 K, 6963 kPa	245.19
413.15 K, 6965 kPa	241.77
413.15 K, 8042 kPa	228.08
413.15 K, 8043 kPa	228.08
413.15 K, 10030 kPa	201.85

— the NIST ThermoML archive (doi:10.1021/acs.jced.7b00946)
